Reference: PubChem BioAssay (NCI)
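Briefly, cells in 96-well plates were exposed to five compound concentrations for 48 h, and endpoints were estimated by linear interpolation. Abbreviation: GI50, concentration required for 50% inhibition of growth. TGI: concentration producing complete growth inhibition.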

Assays:
Assay in all cases: NCI tumour cell line growth inhibition, 48 h
786-0 renal = system: 786-0 renal
A498 renal = system: A498 renal
A549 NSCLC = system: A549 NSCLC
ACHN renal = system: ACHN renal
CAKI-1 renal = system: CAKI-1 renal
CCRF-CEM leukemia = system: CCRF-CEM leukemia
DU-145 prostate = system: DU-145 prostate
EKVX NSCLC = system: EKVX NSCLC
HCC-2998 colon = system: HCC-2998 colon
HCT-116 colon = system: HCT-116 colon
HCT-15 colon = system: HCT-15 colon
HL-60(TB) leukemia = system: HL-60(TB) leukemia
HOP-62 NSCLC = system: HOP-62 NSCLC
HOP-92 NSCLC = system: HOP-92 NSCLC
HS 578T breast = system: HS 578T breast
HT29 colon = system: HT29 colon
IGROV1 ovarian = system: IGROV1 ovarian
K-562 leukemia = system: K-562 leukemia
LOX IMVI melanoma = system: LOX IMVI melanoma
M14 melanoma = system: M14 melanoma
MALME-3M melanoma = system: MALME-3M melanoma
MDA-MB-231 breast = system: MDA-MB-231 breast
MDA-MB-435 = system: MDA-MB-435
MOLT-4 leukemia = system: MOLT-4 leukemia
NCI-H226 lung = system: NCI-H226 lung
NCI-H23 lung = system: NCI-H23 lung
NCI-H460 lung = system: NCI-H460 lung
NCI/ADR-RES ovarian = system: NCI/ADR-RES ovarian
OVCAR-3 ovarian = system: OVCAR-3 ovarian
OVCAR-5 ovarian = system: OVCAR-5 ovarian
PC-3 prostate = system: PC-3 prostate
RPMI-8226 leukemia = system: RPMI-8226 leukemia
RXF 393 renal = system: RXF 393 renal
SF-268 CNS = system: SF-268 CNS
SF-295 CNS = system: SF-295 CNS
SF-539 CNS = system: SF-539 CNS
SK-MEL-2 melanoma = system: SK-MEL-2 melanoma
SK-MEL-28 melanoma = system: SK-MEL-28 melanoma
SK-MEL-5 melanoma = system: SK-MEL-5 melanoma
SK-OV-3 ovarian = system: SK-OV-3 ovarian
SN12C renal = system: SN12C renal
SNB-19 CNS = system: SNB-19 CNS
SNB-75 CNS = system: SNB-75 CNS
SW-620 colon = system: SW-620 colon
TK-10 renal = system: TK-10 renal
U251 CNS = system: U251 CNS
UACC-257 melanoma = system: UACC-257 melanoma
UACC-62 melanoma = system: UACC-62 melanoma
UO-31 renal = system: UO-31 renal
COLO 205 colon = system: COLO 205 colon
KM12 colon = system: KM12 colon
NCI-H522 lung = system: NCI-H522 lung
OVCAR-4 ovarian = system: OVCAR-4 ovarian
OVCAR-8 ovarian = system: OVCAR-8 ovarian
SR leukemia = system: SR leukemia
T-47D breast = system: T-47D breast

## O=C1Nc2ccccc2/C1=C/c1cn(CC(O)Cn2cc(/C=C3\C(=O)Nc4ccccc43)c3ccccc32)c2ccccc12 (configuration not stated)
786-0 renal
  GI50: 1.67 µM
  TGI: 3.21 µM
A498 renal
  GI50: 2.18 µM
  TGI: 4.08 µM
A549 NSCLC
  GI50: 1.51 µM
  TGI: 3.21 µM
ACHN renal
  GI50: 1.63 µM
  TGI: 3.91 µM
CAKI-1 renal
  GI50: 1.62 µM
  TGI: 3.39 µM
CCRF-CEM leukemia
  GI50: 2.84 µM
  TGI: 13.4 µM
DU-145 prostate
  GI50: 1.55 µM
  TGI: 2.95 µM
EKVX NSCLC
  GI50: 1.81 µM
  TGI: 3.78 µM
HCC-2998 colon
  GI50: 2.28 µM
  TGI: 5.21 µM
HCT-116 colon
  GI50: 1.66 µM
  TGI: 4.13 µM
HCT-15 colon
  GI50: 1.77 µM
  TGI: 3.71 µM
HL-60(TB) leukemia
  GI50: 2.95 µM
  TGI: 10.8 µM
HOP-62 NSCLC
  GI50: 1.41 µM
  TGI: 3.06 µM
HOP-92 NSCLC
  GI50: 1.8 µM
  TGI: 4.15 µM
HS 578T breast
  GI50: 2.43 µM
  TGI: 7.85 µM
HT29 colon
  GI50: 1.42 µM
  TGI: 3.52 µM
IGROV1 ovarian
  GI50: 0.477 µM
  TGI: 1.9 µM
K-562 leukemia
  GI50: 1.19 µM
  TGI: 3.56 µM
LOX IMVI melanoma
  GI50: 0.326 µM
  TGI: 1.31 µM
M14 melanoma
  GI50: 1.32 µM
  TGI: 2.83 µM
MALME-3M melanoma
  GI50: 1.51 µM
  TGI: 3.26 µM
MDA-MB-231 breast
  GI50: 1.27 µM
  TGI: 2.71 µM
MDA-MB-435
  GI50: 1.81 µM
  TGI: 3.46 µM
MOLT-4 leukemia
  GI50: 2.58 µM
  TGI: 7.42 µM
NCI-H226 lung
  GI50: 1.68 µM
  TGI: 3.55 µM
NCI-H23 lung
  GI50: 1.57 µM
  TGI: 3.36 µM
NCI-H460 lung
  GI50: 0.488 µM
  TGI: 1.88 µM
NCI/ADR-RES ovarian
  GI50: 12.1 µM
  TGI: 57.1 µM
OVCAR-3 ovarian
  GI50: 1.65 µM
  TGI: 3.3 µM
OVCAR-5 ovarian
  GI50: 1.74 µM
  TGI: 4.53 µM
PC-3 prostate
  GI50: 1.21 µM
  TGI: 2.66 µM
RPMI-8226 leukemia
  GI50: 2.1 µM
  TGI: 5.41 µM
RXF 393 renal
  GI50: 2.04 µM
  TGI: 3.75 µM
SF-268 CNS
  GI50: 1.75 µM
  TGI: 3.92 µM
SF-295 CNS
  GI50: 1.66 µM
  TGI: 3.28 µM
SF-539 CNS
  GI50: 1.55 µM
  TGI: 3.11 µM
SK-MEL-2 melanoma
  GI50: 1.77 µM
  TGI: 3.49 µM
SK-MEL-28 melanoma
  GI50: 1.77 µM
  TGI: 3.5 µM
SK-MEL-5 melanoma
  GI50: 1.98 µM
  TGI: 3.82 µM
SK-OV-3 ovarian
  GI50: 1.65 µM
  TGI: 3.68 µM
SN12C renal
  GI50: 1.52 µM
  TGI: 3.16 µM
SNB-19 CNS
  GI50: 1.21 µM
  TGI: 3.82 µM
SNB-75 CNS
  GI50: 1.33 µM
  TGI: 2.92 µM
SW-620 colon
  GI50: 1.34 µM
  TGI: 3.48 µM
TK-10 renal
  GI50: 2.68 µM
  TGI: 5.46 µM
U251 CNS
  GI50: 1.52 µM
  TGI: 2.92 µM
UACC-257 melanoma
  GI50: 2.35 µM
  TGI: 4.44 µM
UACC-62 melanoma
  GI50: 1.64 µM
  TGI: 3.16 µM
UO-31 renal
  GI50: 1.29 µM
  TGI: 2.94 µM

## C=C(C)[C@@H]1CC[C@]2(C(=O)OCCCC[P+](c3ccccc3)(c3ccccc3)c3ccccc3)CC[C@]3(C)[C@H](CC[C@@H]4[C@@]5(C)CC[C@H](OC(=O)C(Cl)Cl)C(C)(C)[C@@H]5CC[C@]43C)[C@@H]12
SN12C renal
  GI50: 0.27 µM
  TGI: 1.58 µM

## Cc1cn2c(/C=N/N=C(N)N)c(-c3ccncc3)nc2s1
786-0 renal
  GI50: 15.8 µM
  TGI: 29.3 µM
A549 NSCLC
  GI50: 17.6 µM
  TGI: 32.1 µM
ACHN renal
  GI50: 18.5 µM
  TGI: 32.5 µM
CAKI-1 renal
  GI50: > 100 µM
  TGI: > 100 µM
CCRF-CEM leukemia
  GI50: 7.16 µM
  TGI: 22.4 µM
COLO 205 colon
  GI50: 17.5 µM
  TGI: 33.3 µM
DU-145 prostate
  GI50: 16.4 µM
  TGI: 31.2 µM
EKVX NSCLC
  GI50: 12.5 µM
  TGI: 26.8 µM
HCC-2998 colon
  GI50: 14.6 µM
  TGI: 27.7 µM
HCT-116 colon
  GI50: 10.7 µM
  TGI: 22.5 µM
HCT-15 colon
  GI50: 44.1 µM
  TGI: > 100 µM
HL-60(TB) leukemia
  GI50: 19.7 µM
  TGI: 40.1 µM
HOP-62 NSCLC
  GI50: 14.9 µM
  TGI: 28.1 µM
HOP-92 NSCLC
  GI50: 13.4 µM
  TGI: 26.9 µM
HT29 colon
  GI50: 20.1 µM
  TGI: 46.8 µM
IGROV1 ovarian
  GI50: 22.1 µM
  TGI: 49.2 µM
K-562 leukemia
  GI50: 15.4 µM
  TGI: 34 µM
KM12 colon
  GI50: 5.63 µM
  TGI: 19.6 µM
LOX IMVI melanoma
  GI50: 14.9 µM
  TGI: 28.1 µM
M14 melanoma
  GI50: 16.7 µM
  TGI: 30.3 µM
MDA-MB-231 breast
  GI50: 52.6 µM
  TGI: > 100 µM
MDA-MB-435
  GI50: 17.2 µM
  TGI: 33.8 µM
MOLT-4 leukemia
  GI50: 7.74 µM
  TGI: 32.2 µM
NCI-H226 lung
  GI50: 21.8 µM
  TGI: 40.5 µM
NCI-H23 lung
  GI50: 16.6 µM
  TGI: 30.2 µM
NCI-H460 lung
  GI50: 16.8 µM
  TGI: 30.4 µM
NCI-H522 lung
  GI50: 17.7 µM
  TGI: 59.7 µM
NCI/ADR-RES ovarian
  GI50: > 100 µM
  TGI: > 100 µM
OVCAR-3 ovarian
  GI50: 17.5 µM
  TGI: 33.6 µM
OVCAR-4 ovarian
  GI50: 13.2 µM
  TGI: 32 µM
OVCAR-5 ovarian
  GI50: 17.8 µM
  TGI: 31.7 µM
OVCAR-8 ovarian
  GI50: 14.7 µM
  TGI: 30.9 µM
PC-3 prostate
  GI50: 18.8 µM
  TGI: 32.8 µM
RXF 393 renal
  GI50: 14.9 µM
  TGI: 29.8 µM
SF-268 CNS
  GI50: 16.7 µM
  TGI: 30.7 µM
SF-295 CNS
  GI50: 14.3 µM
  TGI: 29.2 µM
SK-MEL-2 melanoma
  GI50: 28.3 µM
  TGI: > 100 µM
SK-MEL-5 melanoma
  GI50: 19.8 µM
  TGI: 34.6 µM
SN12C renal
  GI50: 32.7 µM
  TGI: 69.7 µM
SNB-19 CNS
  GI50: 16.4 µM
  TGI: 31.3 µM
SR leukemia
  GI50: 5.3 µM
  TGI: 17.5 µM
SW-620 colon
  GI50: 18.9 µM
  TGI: 33.8 µM
T-47D breast
  GI50: 16.2 µM
  TGI: 31.6 µM
TK-10 renal
  GI50: 15 µM
  TGI: 28.6 µM
U251 CNS
  GI50: 17.8 µM
  TGI: 31.6 µM
UACC-257 melanoma
  GI50: 19.5 µM
  TGI: 38.5 µM
UACC-62 melanoma
  GI50: 19 µM
  TGI: 34.1 µM
UO-31 renal
  GI50: 18.9 µM
  TGI: 43.7 µM

## NC(=O)c1ncn(CC2(CO)CCC2)n1
SNB-75 CNS
  GI50: 21.6 µM
